System: TG1019 (5-oxo-ETE receptor)
Assay: Intracellular calcium level in CHO cells stably expressing TG1019
Type: cell-based, human
Conditions: FuraII 340/380 nm ratio
Method: (1) Preparation of cells stably expressing TG1019 Cells stably expressing TG1019 (the receptor protein of the present invention) and cells not expressing TG1019 were prepared by introducing to CHO cells the TG1019 protein expression vector prepared in Example 5 and the control vector, as described below.
The cells stably expressing TG1019 prepared in the above section (1) was incubated in DMEM/F12 medium supplemented with 10% fetal bovine serum at 37° C. in a CO2 incubator. To the cells which were 80 to 90% confluent, was added a cell dissociation buffer (Cell Dissociation Buffer Enzyme-free PBS-based, available from Invitrogen), and cells were dissociated by incubating at 37° C. for 5 minutes. […]
The cells after loading were centrifuged once with an assay buffer, to remove supernatant, and then, they were suspended in an assay buffer to have a concentration of 3.7 to 6.3×10^6 cells/ml. This cell suspension was portioned into a 96 well plate by 80 μl/well, and the plate was set in a fluorescence measuring device (FDSS6000, [Hamamatsu Photonics]), and the reaction was started by adding a solution containing 5-oxo-ETE or 5-HETE in a 5 fold concentration dissolved in an assay buffer, by 20 μl/well. The measurement was done by measuring fluorescence intensity at 510 nm, with excitation wavelength of 340 nm and 380 nm.

**Q.** For `CCCCC/C=C\C/C=C\C/C=C\C=C\C(=O)CCCC(=O)O` [5-oxo-ETE, 5-oxo-6E,8Z,11Z,14Z-eicosatetraenoic acid], which “change in intracellular calcium level” value is on record?
**A.** Its value is “increase in intracellular calcium level”.

Reference: patent US7527935B2, “G-protein coupled receptor having eicosanoid as ligand and gene thereof” (Mitsubishi Tanabe Pharma Corporation, priority 2002, dated 2009)
